*1 amine or outer side, *2 acyl side, *3 side chain or, on linkers, in order; H or OH if unused. Where a SMILES comes first, the peptide text is derived from it. Bridges are numbered along the chain shown (N, C = ends). [ ]: non-standard residue; d: D form. Abu(4-yl) = O=C([C@H](CC[*:3])N[*:1])[*:2]; X1 = O=C([C@@H](O)CS[*:2])[*:1]; X2 = O=C(CCC[*:2])[*:1]; Mpa = O=C(O)CCS Some results are limits rather than exact numbers.

The species entered for data set [1] is Rattus norvegicus. Description: Antidiuretic activity in rat. The data set is classed as ADME, organism-based, Urine. To be noted: in vivo.
For data set [2], the target named is T1, Oxytocin receptor (Rattus norvegicus) (UniProt P70536).
T1 sequence (whole entry): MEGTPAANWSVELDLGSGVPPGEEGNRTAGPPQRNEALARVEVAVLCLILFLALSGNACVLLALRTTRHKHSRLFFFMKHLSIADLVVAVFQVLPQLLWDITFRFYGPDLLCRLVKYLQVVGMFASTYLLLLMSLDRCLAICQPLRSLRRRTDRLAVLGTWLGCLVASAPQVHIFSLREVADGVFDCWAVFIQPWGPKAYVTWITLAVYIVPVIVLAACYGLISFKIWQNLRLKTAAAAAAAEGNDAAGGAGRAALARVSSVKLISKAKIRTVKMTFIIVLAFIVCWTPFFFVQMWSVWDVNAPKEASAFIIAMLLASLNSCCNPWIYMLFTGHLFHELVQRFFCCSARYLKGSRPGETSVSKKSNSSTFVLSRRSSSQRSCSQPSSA
Description: Activity at oxytocin receptor in rat uterus in presence of 0.5 mM Mg2+. The format is tissue-based.

Data set [3] is described as follows: Ratio of activity at oxytocin receptor in rat uterus to antidiuretic activity in rat. Set-up: species or system Urine.
For data set [4], the species on record is Rattus norvegicus. Description: Vasopressor activity in rat. The data set is classed as ADME, organism-based. The note with it: in vivo.
Data set [5] concerns the target T1, Oxytocin receptor (Rattus norvegicus). The data set is described as follows: Activity at oxytocin receptor in rat uterus. The data set is classed as tissue-based.
The species entered for another data set is Oryctolagus cuniculus. Description: Oxytocic activity in rabbit assessed as milk ejection. The format is functional.
The species entered for data set [6] is Rattus norvegicus. Description: Oxytocic activity in rat assessed as milk ejection. The data set is classed as functional.
A short description of data set [7]: Ratio of activity at oxytocin receptor in rat uterus to vasopressor activity in rat.
The target in data set [8] is T1, Oxytocin receptor (Rattus norvegicus). Description: Activity at oxytocin receptor in rat uterus relative to oxytocin. The data set is classed as tissue-based.
For data set [9] the target is unchanged. Description: Activity at oxytocin receptor in rat mammary strip.

As to `CC[C@H](C)[C@@H]1NC(=O)[C@H](Cc2ccc(O)cc2)NC(=O)CCSSC[C@@H](C(=O)N2CCC[C@H]2C(=O)N[C@@H](CC(C)C)C(=O)NCC(N)=O)NC(=O)[C@H](CC(N)=O)NC(=O)[C@H]([C@@H](C)O)NC1=O` ([Mpa]YITNCPLG-NH2; disulfide 1-6), the Activity is 0.9 U/mg in the data set filed under Rattus norvegicus [1]; 242 U/mg in data set [2]; below 0.1 U/mg in the data set listed under Rattus norvegicus [4]; 149 U/mg in data set [5]; 385 U/mg in the data set listed under Oryctolagus cuniculus. Also, the Ratio in [3] is 165.
As for `CC[C@H](C)[C@@H]1NC(=O)[C@H](Cc2ccc(O)cc2)NC(=O)CCSSC[C@H](C(=O)N2CCC[C@H]2C(=O)N[C@@H](CC(C)C)C(=O)NCC(N)=O)NC(=O)[C@H](CC(N)=O)NC(=O)[C@H](CCC(N)=O)NC1=O`, the Activity in data set [2] stood at 760 U/mg.
`CC[C@H](C)[C@@H]1NC(=O)[C@H](Cc2ccc(O)cc2)NC(=O)[C@@H](O)CSSC[C@@H](C(=O)N2CCC[C@H]2C(=O)N[C@@H](CC(C)C)C(=O)NCC(N)=O)NC(=O)[C@H](CC(N)=O)NC(=O)[C@H]([C@@H](C)O)NC1=O` (YITNCPLG-NH2; linker N-5 via X1): the Activity in the data set listed under Rattus norvegicus [6] worked out at 808 U/mg; in the data set filed under Rattus norvegicus [1], 5.3 U/mg; in data set [2], 937 U/mg; in [9] it was 378 U/mg; in the data set filed under Rattus norvegicus [4], 4.92 U/mg; in data set [5], 4180 U/mg. Further, the Ratio in data set [7] was 849; in data set [8], 8; in data set [3], 788.
With `CC[C@H](C)[C@@H]1NC(=O)[C@H](Cc2ccc(O)cc2)NC(=O)CCSSC[C@@H](C(=O)N2CCC[C@H]2C(=O)N[C@@H](CC(C)C)C(=O)NCC(N)=O)NC(=O)[C@H](CC(N)=O)NC(=O)[C@H](CCC(N)=O)NC1=O` [DEMOXYTOCIN], the figures for the Ratio in [7] and in data set [3] were 558 and 42, respectively. Moreover, the Activity in the data set filed under Rattus norvegicus [1] is 19 U/mg; in the data set listed under Rattus norvegicus [4], 1.44 U/mg; in the data set listed under Oryctolagus cuniculus it was 541 U/mg.
Regarding `CC[C@H](C)[C@@H]1NC(=O)[C@H](Cc2ccc(O)cc2)NC(=O)[C@@H](N)CSSC[C@@H](C(=O)N2CCC[C@H]2C(=O)N[C@@H](CC(C)C)C(=O)NCC(N)=O)NC(=O)[C@H](CC(N)=O)NC(=O)[C@H]([C@@H](C)O)NC1=O` (H-CYITNCPLG-NH2; disulfide 1-6), the Ratio in data set [7] is 2146; in data set [8] it was above 4; in data set [3], 513. Also, the Activity in the data set listed under Rattus norvegicus [1] amounted to 1.8 U/mg; in data set [2] it was 719 U/mg; in the data set listed under Rattus norvegicus [4] it was 0.43 U/mg; in data set [5] it was 923 U/mg; in the data set filed under Oryctolagus cuniculus, 543 U/mg.
In the case of `CC[C@H](C)[C@@H]1NC(=O)[C@H](Cc2ccc(O)cc2)NC(=O)[C@@H](N)CCSC[C@@H](C(=O)N2CCC[C@H]2C(=O)N[C@@H](CC(C)C)C(=O)NCC(N)=O)NC(=O)[C@H](CC(N)=O)NC(=O)[C@H](CCC(N)=O)NC1=O` (H-[Abu(4-yl)]YIQNCPLG-NH2; thioether 1-6), the Ratio is 249 in data set [7] and 79 in data set [3]. For the same compound, the Activity was 9.3 U/mg in the data set filed under Rattus norvegicus [1], 177 U/mg in [9], 2.95 U/mg in the data set listed under Rattus norvegicus [4] and 734 U/mg in data set [5].
`CC[C@H](C)[C@@H]1NC(=O)[C@H](Cc2ccc(O)cc2)NC(=O)[C@@H](N)CSSC[C@@H](C(=O)N2CCC[C@H]2C(=O)N[C@@H](CC(C)C)C(=O)NCC(N)=O)NC(=O)[C@H](CC(N)=O)NC(=O)[C@H](CCC(N)=O)NC1=O` [OXYTOCIN]: the Activity in the data set filed under Rattus norvegicus [1] is 4 U/mg; in data set [2] it was 486 U/mg; in [5], 520 U/mg; in the data set filed under Oryctolagus cuniculus it was 474 U/mg. For the same compound, the Ratio in data set [8] was above 7.
With `CC[C@H](C)[C@@H]1NC(=O)[C@H](Cc2ccc(O)cc2)NC(=O)CCCSC[C@@H](C(=O)N2CCC[C@H]2C(=O)N[C@@H](CC(C)C)C(=O)NCC(N)=O)NC(=O)[C@H](CC(N)=O)NC(=O)[C@H](CCC(N)=O)NC1=O` (YIQNCPLG-NH2; linker N-5 via X2), the Ratio in [7] was found to be 108; in data set [8], 4; in data set [3], 79. In addition, the Activity was 24.1 U/mg in the data set filed under Rattus norvegicus [1]; 921 U/mg in data set [2]; 581 U/mg in data set [9]; 17.5 U/mg in the data set filed under Rattus norvegicus [4]; 1900 U/mg in [5].
In the case of `CC[C@H](C)[C@@H]1NC(=O)[C@H](Cc2ccc(O)cc2)NC(=O)[C@@H](O)CSSC[C@@H](C(=O)N2CCC[C@H]2C(=O)N[C@@H](CC(C)C)C(=O)NCC(N)=O)NC(=O)[C@H](CC(N)=O)NC(=O)[C@H](CCC(N)=O)NC1=O` (YIQNCPLG-NH2; linker N-5 via X1), the Activity in the data set listed under Rattus norvegicus [6] came to 694 U/mg; in the data set filed under Rattus norvegicus [1], 16.6 U/mg; in data set [2], 868 U/mg; in data set [9] it was 363 U/mg; in the data set listed under Rattus norvegicus [4], 14.7 U/mg; in data set [5], 1280 U/mg. For the same compound, the Ratio in data set [7] worked out at 50; in [8], 2.45; in data set [3] it was 77.

The record behind these values is ChEMBL document CHEMBL3272160, “Synthesis and some pharmacological properties of [1-(L-2-hydroxy-3-mercaptopropanoic acid), 4-threonine]oxytocin (hydroxy [4-thr]oxytocin), a peptide with strikingly high oxytocic potency and of [1-(L-2-hydroxy-3-mercaptopropanoic acid)]oxytocin (hydroxy-oxytocin)” (J Med Chem, 1976).
